Data taken from ChEMBL document CHEMBL5696442, “Discovery of type II inhibitors of TGFβ-activated kinase 1 (TAK1) and mitogen-activated protein kinase kinase kinase kinase 2 (MAP4K2)” (J Med Chem, 2015).
Activity calls are given as the source filed them. The rule behind the calls is not given here.

Columns and labels:
[1] = target: DNA-PK/Ku70/Ku85 (Homo sapiens) (UniProt P78527+P12956+P13010); assay: Inhibition of DNAPK ATP labeling site harbouring KGGSWIQEINVAEK in human A-375 cells at 0.05 uM by KiNativ Profiling analysis relative to control; format: cell-based
[2] = system: Epidermal growth factor receptor (Homo sapiens), P00533 [UNDEFINED MUTATION]; settings: dose 1.0 µM
[3] = target: Mast/stem cell growth factor receptor Kit (Homo sapiens) (UniProt P10721); assay: Inhibition of KIT (unknown origin) at 1 uM by Ambit Kinomescan binding assay relative to control; values are per cent of control
[4] = target: T1, Receptor-interacting serine/threonine-protein kinase 4 (Homo sapiens) (UniProt P57078); assay: Inhibition of RIPK4 (unknown origin) at 1 uM by Ambit Kinomescan binding assay relative to control
T1 sequence (whole entry): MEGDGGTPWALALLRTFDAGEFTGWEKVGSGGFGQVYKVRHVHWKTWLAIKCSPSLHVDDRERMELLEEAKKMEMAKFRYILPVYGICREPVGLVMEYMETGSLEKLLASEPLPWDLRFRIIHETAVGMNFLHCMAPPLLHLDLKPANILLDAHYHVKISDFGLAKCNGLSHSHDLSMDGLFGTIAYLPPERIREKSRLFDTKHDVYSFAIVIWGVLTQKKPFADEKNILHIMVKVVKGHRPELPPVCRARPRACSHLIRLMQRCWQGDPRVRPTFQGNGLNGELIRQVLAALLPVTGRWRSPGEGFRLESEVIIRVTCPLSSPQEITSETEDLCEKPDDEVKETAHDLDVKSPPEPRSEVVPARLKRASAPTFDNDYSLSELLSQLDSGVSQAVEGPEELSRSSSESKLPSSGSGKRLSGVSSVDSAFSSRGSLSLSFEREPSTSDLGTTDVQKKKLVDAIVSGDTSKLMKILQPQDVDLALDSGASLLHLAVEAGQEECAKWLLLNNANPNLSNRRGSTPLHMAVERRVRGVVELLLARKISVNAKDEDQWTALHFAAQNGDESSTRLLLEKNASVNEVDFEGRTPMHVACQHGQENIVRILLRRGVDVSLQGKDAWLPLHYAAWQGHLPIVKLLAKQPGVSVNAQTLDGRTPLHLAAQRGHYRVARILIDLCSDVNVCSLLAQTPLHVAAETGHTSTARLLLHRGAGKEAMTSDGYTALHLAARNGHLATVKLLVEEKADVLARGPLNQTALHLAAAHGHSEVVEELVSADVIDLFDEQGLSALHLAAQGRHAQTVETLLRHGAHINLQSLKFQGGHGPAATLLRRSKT

[5] = target: Macrophage-stimulating protein receptor (Homo sapiens) (UniProt Q04912); assay: Inhibition of MST1R (unknown origin) at 1 uM by Ambit Kinomescan binding assay relative to control
[6] = target: cAMP-dependent protein kinase catalytic subunit beta (Homo sapiens) (UniProt P22694); assay: Inhibition of PKAC beta (unknown origin) at 1 uM by Ambit Kinomescan binding assay relative to control
[7] = target: Serine/threonine-protein kinase DCLK3 (Homo sapiens) (UniProt Q9C098); assay: Inhibition of DCAMKL3 (unknown origin) at 1 uM by Ambit Kinomescan binding assay relative to control; values are per cent of control
[8] = target: Receptor-interacting serine/threonine-protein kinase 1 (Homo sapiens) (UniProt Q13546); assay: Inhibition of RIPK1 (unknown origin) at 10 uM by Ambit Kinomescan binding assay relative to control; values are per cent of control
[9] = target: Calcium/calmodulin-dependent protein kinase type 1 (Homo sapiens) (UniProt Q14012); assay: Inhibition of CaMK1a K1 labeling site in human Huh-7 cells at 1 uM by KiNativ Profiling analysis relative to control; format: cell-based
[10] = target: RAC-gamma serine/threonine-protein kinase (Homo sapiens) (UniProt Q9Y243); assay: Inhibition of AKT3 (unknown origin) at 10 uM by Ambit Kinomescan binding assay
[11] = target: T2, Serine/threonine-protein kinase TAO3 (Homo sapiens) (UniProt Q9H2K8); assay: Inhibition of TAO3 Lys2 labeling site in human Huh-7 cell lysate at 1 uM by KiNativ Profiling analysis relative to control; format: subcellular
T2 sequence (whole entry): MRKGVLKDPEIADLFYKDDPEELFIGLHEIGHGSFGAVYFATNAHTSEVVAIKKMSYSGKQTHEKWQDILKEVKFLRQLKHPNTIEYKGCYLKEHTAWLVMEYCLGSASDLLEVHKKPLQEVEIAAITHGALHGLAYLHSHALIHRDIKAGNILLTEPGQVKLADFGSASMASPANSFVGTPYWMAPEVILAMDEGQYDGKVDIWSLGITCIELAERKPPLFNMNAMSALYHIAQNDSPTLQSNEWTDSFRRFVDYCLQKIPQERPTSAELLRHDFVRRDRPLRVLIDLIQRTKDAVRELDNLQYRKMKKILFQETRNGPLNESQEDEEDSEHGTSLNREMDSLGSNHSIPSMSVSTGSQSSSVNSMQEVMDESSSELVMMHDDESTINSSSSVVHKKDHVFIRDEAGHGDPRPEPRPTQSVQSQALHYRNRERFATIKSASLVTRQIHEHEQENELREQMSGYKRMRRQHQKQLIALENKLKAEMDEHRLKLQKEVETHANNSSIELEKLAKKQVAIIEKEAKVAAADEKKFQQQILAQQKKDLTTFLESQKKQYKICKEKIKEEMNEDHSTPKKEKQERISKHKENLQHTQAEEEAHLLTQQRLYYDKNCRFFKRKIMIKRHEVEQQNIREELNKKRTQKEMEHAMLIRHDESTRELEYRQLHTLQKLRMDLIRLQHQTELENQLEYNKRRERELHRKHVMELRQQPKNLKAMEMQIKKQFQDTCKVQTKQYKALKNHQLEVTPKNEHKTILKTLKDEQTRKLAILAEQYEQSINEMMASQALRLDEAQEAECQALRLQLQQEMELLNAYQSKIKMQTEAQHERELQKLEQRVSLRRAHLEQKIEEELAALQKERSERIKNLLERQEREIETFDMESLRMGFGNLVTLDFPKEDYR

Mast/stem cell growth factor receptor Kit (Homo sapiens), sequence (P10721 whole entry): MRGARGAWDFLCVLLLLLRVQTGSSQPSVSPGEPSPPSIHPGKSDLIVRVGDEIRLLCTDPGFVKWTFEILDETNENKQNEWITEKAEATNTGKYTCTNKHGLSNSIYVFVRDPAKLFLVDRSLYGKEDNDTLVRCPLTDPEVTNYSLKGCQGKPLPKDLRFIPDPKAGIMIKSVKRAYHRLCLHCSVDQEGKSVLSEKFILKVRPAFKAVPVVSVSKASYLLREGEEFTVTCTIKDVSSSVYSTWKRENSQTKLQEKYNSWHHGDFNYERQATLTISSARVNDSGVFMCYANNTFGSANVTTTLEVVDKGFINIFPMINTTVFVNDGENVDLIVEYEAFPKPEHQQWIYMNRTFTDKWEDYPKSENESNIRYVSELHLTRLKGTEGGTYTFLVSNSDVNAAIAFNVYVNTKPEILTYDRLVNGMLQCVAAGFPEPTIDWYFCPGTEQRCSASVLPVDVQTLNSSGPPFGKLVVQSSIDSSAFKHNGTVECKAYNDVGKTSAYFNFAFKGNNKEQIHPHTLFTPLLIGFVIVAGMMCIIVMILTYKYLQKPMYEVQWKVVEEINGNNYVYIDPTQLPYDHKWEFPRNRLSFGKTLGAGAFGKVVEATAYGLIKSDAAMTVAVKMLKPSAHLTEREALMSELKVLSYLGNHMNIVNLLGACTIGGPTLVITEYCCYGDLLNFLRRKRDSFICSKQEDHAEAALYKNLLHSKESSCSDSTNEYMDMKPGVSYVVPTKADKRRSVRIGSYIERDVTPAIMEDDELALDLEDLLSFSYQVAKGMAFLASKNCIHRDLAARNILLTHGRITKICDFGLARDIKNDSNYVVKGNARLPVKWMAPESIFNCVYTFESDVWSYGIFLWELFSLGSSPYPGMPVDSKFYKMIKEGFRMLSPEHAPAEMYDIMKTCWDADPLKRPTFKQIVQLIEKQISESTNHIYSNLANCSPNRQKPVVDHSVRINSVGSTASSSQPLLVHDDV
RAC-gamma serine/threonine-protein kinase (Homo sapiens), sequence (Q9Y243 whole entry): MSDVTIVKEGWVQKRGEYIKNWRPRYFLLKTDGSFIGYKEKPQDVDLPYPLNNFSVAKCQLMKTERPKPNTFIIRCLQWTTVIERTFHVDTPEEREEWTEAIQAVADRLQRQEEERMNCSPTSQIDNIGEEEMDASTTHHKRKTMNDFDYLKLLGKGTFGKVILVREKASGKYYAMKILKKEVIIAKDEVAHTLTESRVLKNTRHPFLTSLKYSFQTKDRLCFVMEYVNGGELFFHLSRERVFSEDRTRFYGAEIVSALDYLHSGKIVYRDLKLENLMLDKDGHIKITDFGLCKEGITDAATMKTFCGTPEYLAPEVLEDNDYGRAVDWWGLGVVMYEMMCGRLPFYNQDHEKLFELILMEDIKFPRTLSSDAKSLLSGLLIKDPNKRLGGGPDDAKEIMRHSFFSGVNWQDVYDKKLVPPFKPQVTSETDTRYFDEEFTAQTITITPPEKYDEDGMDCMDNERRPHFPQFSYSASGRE
Calcium/calmodulin-dependent protein kinase type 1 (Homo sapiens), sequence (Q14012 whole entry, looked up): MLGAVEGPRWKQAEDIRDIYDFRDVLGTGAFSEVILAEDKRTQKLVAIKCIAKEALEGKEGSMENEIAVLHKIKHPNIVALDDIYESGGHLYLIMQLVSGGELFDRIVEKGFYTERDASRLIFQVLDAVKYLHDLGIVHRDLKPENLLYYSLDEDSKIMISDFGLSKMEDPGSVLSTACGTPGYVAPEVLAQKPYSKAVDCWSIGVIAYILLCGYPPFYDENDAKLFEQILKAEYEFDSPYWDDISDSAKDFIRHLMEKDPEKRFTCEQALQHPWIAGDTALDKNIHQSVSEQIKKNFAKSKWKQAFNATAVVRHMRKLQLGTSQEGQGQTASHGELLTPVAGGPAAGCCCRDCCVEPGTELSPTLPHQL
Receptor-interacting serine/threonine-protein kinase 1 (Homo sapiens), sequence (Q13546 whole entry): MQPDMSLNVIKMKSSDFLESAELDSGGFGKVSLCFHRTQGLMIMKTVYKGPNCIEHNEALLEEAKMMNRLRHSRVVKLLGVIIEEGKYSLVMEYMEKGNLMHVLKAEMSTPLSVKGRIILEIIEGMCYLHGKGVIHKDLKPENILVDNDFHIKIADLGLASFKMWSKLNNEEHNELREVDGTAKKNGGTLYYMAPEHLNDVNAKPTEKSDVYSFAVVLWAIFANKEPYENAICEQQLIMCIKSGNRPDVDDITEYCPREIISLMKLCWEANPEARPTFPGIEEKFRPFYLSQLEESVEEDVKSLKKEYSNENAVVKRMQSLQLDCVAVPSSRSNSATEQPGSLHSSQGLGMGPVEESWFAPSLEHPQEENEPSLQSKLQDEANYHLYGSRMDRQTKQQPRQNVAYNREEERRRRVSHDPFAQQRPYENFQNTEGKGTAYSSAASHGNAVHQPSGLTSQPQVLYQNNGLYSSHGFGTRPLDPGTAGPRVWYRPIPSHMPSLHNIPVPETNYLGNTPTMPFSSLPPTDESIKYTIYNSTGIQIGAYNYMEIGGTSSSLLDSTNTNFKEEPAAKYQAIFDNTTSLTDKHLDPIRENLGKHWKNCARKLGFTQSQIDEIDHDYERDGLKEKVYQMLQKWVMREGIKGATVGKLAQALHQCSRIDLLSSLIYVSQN
Macrophage-stimulating protein receptor (Homo sapiens), sequence (Q04912 25-304 limits assumed): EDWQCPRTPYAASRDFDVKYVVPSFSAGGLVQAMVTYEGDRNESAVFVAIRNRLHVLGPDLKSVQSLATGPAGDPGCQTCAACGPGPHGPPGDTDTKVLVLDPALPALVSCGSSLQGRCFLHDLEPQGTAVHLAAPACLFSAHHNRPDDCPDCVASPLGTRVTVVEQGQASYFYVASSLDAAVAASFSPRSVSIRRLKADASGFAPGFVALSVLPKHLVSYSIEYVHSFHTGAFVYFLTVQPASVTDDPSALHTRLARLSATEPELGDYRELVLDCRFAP
Macrophage-stimulating protein receptor (Homo sapiens), sequence (Q04912 310-1400 limits assumed): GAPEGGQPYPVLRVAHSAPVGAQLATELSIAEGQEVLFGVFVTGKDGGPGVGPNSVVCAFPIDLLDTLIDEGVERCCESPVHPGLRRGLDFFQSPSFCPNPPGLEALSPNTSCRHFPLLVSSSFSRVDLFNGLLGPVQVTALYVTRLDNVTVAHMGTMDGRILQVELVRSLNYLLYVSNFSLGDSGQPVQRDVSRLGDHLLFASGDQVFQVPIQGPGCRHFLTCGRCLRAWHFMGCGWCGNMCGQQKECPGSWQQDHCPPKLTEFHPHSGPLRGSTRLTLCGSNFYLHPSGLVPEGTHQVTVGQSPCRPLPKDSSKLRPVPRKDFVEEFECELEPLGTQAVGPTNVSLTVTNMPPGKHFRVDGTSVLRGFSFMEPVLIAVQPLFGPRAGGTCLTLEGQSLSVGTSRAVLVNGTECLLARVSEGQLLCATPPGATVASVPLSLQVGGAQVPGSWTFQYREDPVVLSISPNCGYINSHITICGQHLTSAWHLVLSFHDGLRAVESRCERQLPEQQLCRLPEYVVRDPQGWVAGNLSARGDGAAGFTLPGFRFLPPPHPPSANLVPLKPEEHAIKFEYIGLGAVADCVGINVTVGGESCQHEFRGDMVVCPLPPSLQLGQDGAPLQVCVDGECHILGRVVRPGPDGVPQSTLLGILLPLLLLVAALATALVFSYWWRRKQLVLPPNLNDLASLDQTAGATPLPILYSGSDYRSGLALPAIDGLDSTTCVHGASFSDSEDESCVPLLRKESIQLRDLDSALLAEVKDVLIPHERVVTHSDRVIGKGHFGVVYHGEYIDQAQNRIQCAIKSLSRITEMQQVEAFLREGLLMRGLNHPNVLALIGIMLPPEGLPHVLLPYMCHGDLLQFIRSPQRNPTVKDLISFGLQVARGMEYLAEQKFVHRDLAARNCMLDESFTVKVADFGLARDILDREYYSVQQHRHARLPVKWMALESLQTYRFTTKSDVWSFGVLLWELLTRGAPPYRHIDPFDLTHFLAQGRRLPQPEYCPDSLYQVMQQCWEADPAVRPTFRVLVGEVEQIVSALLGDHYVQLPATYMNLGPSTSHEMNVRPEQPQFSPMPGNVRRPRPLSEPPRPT
Serine/threonine-protein kinase DCLK3 (Homo sapiens), sequence (Q9C098 whole entry): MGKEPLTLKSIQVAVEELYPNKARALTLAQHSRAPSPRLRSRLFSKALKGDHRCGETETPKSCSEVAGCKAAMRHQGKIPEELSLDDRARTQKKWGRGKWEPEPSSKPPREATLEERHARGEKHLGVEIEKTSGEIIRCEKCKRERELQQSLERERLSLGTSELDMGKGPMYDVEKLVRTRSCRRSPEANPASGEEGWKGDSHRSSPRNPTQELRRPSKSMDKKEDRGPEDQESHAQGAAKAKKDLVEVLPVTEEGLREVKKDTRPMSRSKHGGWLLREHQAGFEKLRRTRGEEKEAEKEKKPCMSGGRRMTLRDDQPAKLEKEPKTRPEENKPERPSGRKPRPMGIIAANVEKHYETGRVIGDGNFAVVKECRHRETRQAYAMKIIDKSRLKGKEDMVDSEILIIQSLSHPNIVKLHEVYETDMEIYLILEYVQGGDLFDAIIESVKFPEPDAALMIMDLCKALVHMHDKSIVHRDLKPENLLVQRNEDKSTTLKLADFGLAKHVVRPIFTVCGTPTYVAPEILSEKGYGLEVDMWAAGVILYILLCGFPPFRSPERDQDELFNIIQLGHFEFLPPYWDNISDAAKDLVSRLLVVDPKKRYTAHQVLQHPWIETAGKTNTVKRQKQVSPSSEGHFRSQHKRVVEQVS

Question: `CCN1CCN(Cc2ccc(NC(=O)c3ccc(C)c(/C=C/c4cnc5[nH]ccc5c4OC)c3)cc2C(F)(F)F)CC1` was tested. Which inhibition [1] did it give?
Answer: The inhibition was 17.7%.

Question: And the inhibition [2]?
Answer: The inhibition was 0.5%.

Question: And the residual activity [3]?
Answer: The residual activity was 0.3%.

Question: What about the inhibition [4] of the same compound?
Answer: The inhibition was 100%.

Question: What about the inhibition [5] of the same compound?
Answer: The inhibition was 81%.

Question: And the inhibition [6]?
Answer: Its inhibition is 76%.

Question: What about the residual activity [7] of the same compound?
Answer: The residual activity was 100%.

Question: What does the source list for `CCN1CCN(Cc2ccc(NC(=O)c3ccc(C)c(Oc4ccnc5[nH]ccc45)c3)cc2C(F)(F)F)CC1`?
Answer: residual activity [8]: 0%; inhibition [9]: 19%; inhibition [10]: inactive

Question: For `CNc1cc(Oc2cc(C(=O)Nc3cc(N4CCN(C)CC4)cc(C(F)(F)F)c3)ccc2C)ncn1`, which inhibition [11] is on record?
Answer: Its inhibition is -1.2%.
